# Values quoted from earlier work in US10485825B2, “Prevention of pregnancy complications by noble gas administration” (NOBLIS THERAPEUTICS, INC., priority 2016, dated 2019).
# Tested on: Tregs
# Conditions: CCL20 stimulation; blocked by neutralizing anti-CCL20 antibody
substance,measurement,value
CCL20: CCL20 protein used to stimulate Treg migration in a cited study,increase in migration of CCL20-stimulated Tregs,3.21 fold
